Measured values from publication PMC7914897, “Cytotoxic Potential of a-Azepano- and 3-Amino-3,4-SeCo-Triterpenoids” (International Journal of Molecular Sciences, 2021).
Read-outs that look alike come from different tables or passages of the source.

How the values were obtained:
[1] = test system: A2780 (ovarian carcinoma); experiment: SRB cytotoxicity assay, 72 h; assay type: cell-based, human; conditions: Homo sapiens; A2780, 72 h, cut-off 30 µM; read-out: EC50
In short: (§1)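 Exponentially growing cells were seeded to avoid confluence, then exposed after 24 h to serial compound dilutions (0–30 µM; DMSO ≤0.5%) for 72 h. Cells were fixed with 10% TCA at 4 °C, stained with 0.4% SRB, and bound dye dissolved in 10 mM Tris base was read at 570 nm. EC50 came from survival relative to untreated controls.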

[2] = test system: A375 (malignant melanoma); experiment: SRB cytotoxicity assay, 72 h; assay type: cell-based, human; conditions: Homo sapiens, A-375, 72 h, A375, 72 h, cut-off 30 µM; read-out: EC50
In short: as §1

[3] = test system: FaDu (hypopharyngeal carcinoma); experiment: SRB cytotoxicity assay, 72 h; assay type: cell-based, human; conditions: Homo sapiens, cut-off 30 µM, read-out: EC50
In short: as §1

[4] = test system: HT29 (colorectal carcinoma); experiment: SRB cytotoxicity assay, 72 h; assay type: cell-based, human; conditions: Homo sapiens, HT-29; HT29, 72 h, cut-off 30 µM; read-out: EC50
In short: as §1

MCF-7 (breast carcinoma) = experiment: SRB cytotoxicity assay, 72 h; assay type: cell-based, human; conditions: Homo sapiens, MCF7; MCF-7, 72 h, cut-off 30 µM; read-out: EC50
In short: as §1

HL-60(TB) (Leukemia) = experiment: NCI-60 screen (SRB, 48 h); assay type: cell-based; conditions: Homo sapiens; for IC (TGI): 48 h
MDA-MB-435 (Melanoma) = experiment: NCI-60 screen (SRB, 48 h); assay type: cell-based
BT-549 (Breast cancer) = experiment: NCI-60 screen (SRB, 48 h); assay type: cell-based; conditions: Homo sapiens; for GI50: BT-549
NSC lung cancer subpanel = experiment: NCI-60 screen, subpanel; conditions: Homo sapiens; for IC (TGI): 48 h, read-out: TGI MG_MID; for GI50: read-out: GI50 MG_MID; for CC50: read-out: LC50 MG_MID
CCRF-CEM (Leukemia) = experiment: NCI-60 screen (SRB, 48 h); conditions: Homo sapiens
RPMI-8226 (Leukemia) = experiment: NCI-60 screen (SRB, 48 h); conditions: Homo sapiens; for GI50: RPMI-8226
HCT-116 (Colon cancer) = experiment: NCI-60 screen (SRB, 48 h); conditions: Homo sapiens; for GI50: HCT-116; for activity at 10 µM / IC (TGI): HCT-116, 48 h; for activity at 10 µM: read-out: Growth % of the Most Sensitive Cell Lines; for IC (TGI): read-out: TGI
HT29 (Colon cancer) = experiment: NCI-60 screen (SRB, 48 h); conditions: Homo sapiens; for GI50: HT-29
SF-268 (CNS cancer) = experiment: NCI-60 screen (SRB, 48 h); conditions: Homo sapiens; for GI50: SF-268
SF-539 (CNS cancer) = experiment: NCI-60 screen (SRB, 48 h); conditions: Homo sapiens; for GI50: SF-539; for IC (TGI): SF-539, 48 h, read-out: TGI
SK-MEL-5 (Melanoma) = experiment: NCI-60 screen (SRB, 48 h); conditions: for GI50 / IC (TGI) / CC50: Homo sapiens; for GI50: SK-MEL-5; for IC (TGI): SK-MEL-5, 48 h, read-out: TGI; for CC50: SK-MEL-5, read-out: LC50
IGROV1 (Ovarian cancer) = experiment: NCI-60 screen (SRB, 48 h); conditions: Homo sapiens; for GI50: IGROV-1; for IC (TGI): IGROV-1, 48 h, read-out: TGI
OVCAR-5 (Ovarian cancer) = experiment: NCI-60 screen (SRB, 48 h); conditions: Homo sapiens; for GI50: OVCAR-5
SK-OV-3 (Ovarian cancer) = experiment: NCI-60 screen (SRB, 48 h); conditions: Homo sapiens; for GI50: SK-OV-3; for IC (TGI): SK-OV-3, 48 h, read-out: TGI
CAKI-1 (Renal cancer) = experiment: NCI-60 screen (SRB, 48 h); conditions: Homo sapiens; for GI50: CAKI-1
RXF 393 (Renal cancer) = experiment: NCI-60 screen (SRB, 48 h); conditions: Homo sapiens
TK-10 (Renal cancer) = experiment: NCI-60 screen (SRB, 48 h); conditions: for GI50: TK-10; for IC (TGI): TK-10, 48 h, read-out: TGI
PC-3 (Prostate cancer) = experiment: NCI-60 screen (SRB, 48 h); conditions: Homo sapiens; for GI50: PC-3

Compound: C=C(C)[C@@H]1CC[C@]2(C(=O)N[C@H](CO)Cc3ccccc3)CC[C@]3(C)[C@H](CC[C@@H]4[C@@]5(C)CCCNC(C)(C)[C@@H]5CC[C@]43C)[C@@H]12 [Compound 11]
- EC50 [1]: 780 ± 400 nM
- EC50 [2]: 1000 ± 100 nM
- EC50 [3]: 880 ± 100 nM
- EC50 [4]: 1020 ± 30 nM
- EC50 (MCF-7 (breast carcinoma)): 1170 ± 200 nM
- GI50 (HL-60(TB) (Leukemia)): 200 nM
- IC (TGI) (HL-60(TB) (Leukemia)): 460 nM
- IC (TGI) (MDA-MB-435 (Melanoma); Homo sapiens, MDA-MB-435, 48 h; read-out: TGI): 2360 nM
- GI50 (MDA-MB-435 (Melanoma); Homo sapiens, MDA-MB-435; read-out: GI50): 1100 nM
- GI50 (BT-549 (Breast cancer)): 1690 nM
- IC (TGI) (BT-549 (Breast cancer); BT-549, 48 h): 3320 nM
- IC (TGI) (NSC lung cancer subpanel): 3150 nM
- GI50 (NSC lung cancer subpanel): 1520 nM
- CC50 (NSC lung cancer subpanel): 6410 nM
- GI50 (CCRF-CEM (Leukemia)): 250 nM
- IC (TGI) (CCRF-CEM (Leukemia); 48 h, read-out: TGI): 740 nM
- GI50 (RPMI-8226 (Leukemia)): 240 nM
- IC (TGI) (RPMI-8226 (Leukemia); RPMI-8226, 48 h, read-out: TGI): 630 nM
- GI50 (HCT-116 (Colon cancer)): 310 nM
- activity at 10 µM (HCT-116 (Colon cancer)): -94.8%
- IC (TGI) (HCT-116 (Colon cancer)): 1250 nM
- GI50 (HT29 (Colon cancer)): 240 nM
- IC (TGI) (HT29 (Colon cancer); HT-29, 48 h, read-out: TGI): 540 nM
- CC50 (HT29 (Colon cancer); HT-29, read-out: LC50): 1750 nM
- GI50 (SF-268 (CNS cancer)): 1560 nM
- IC (TGI) (SF-268 (CNS cancer); SF-268, 48 h, read-out: TGI): 3390 nM
- GI50 (SF-539 (CNS cancer)): 1730 nM
- IC (TGI) (SF-539 (CNS cancer)): 3190 nM
- GI50 (SK-MEL-5 (Melanoma)): 1670 nM
- IC (TGI) (SK-MEL-5 (Melanoma)): 3070 nM
- CC50 (SK-MEL-5 (Melanoma)): 5640 nM
- Growth % of the Most Sensitive Cell Lines (SK-MEL-5 (Melanoma); SK-MEL-5, 1 dose 10 µM): −95.48%
- GI50 (IGROV1 (Ovarian cancer)): 1830 nM
- IC (TGI) (IGROV1 (Ovarian cancer)): 3610 nM
- GI50 (OVCAR-5 (Ovarian cancer)): 1690 nM
- IC (TGI) (OVCAR-5 (Ovarian cancer); OVCAR-5, 48 h, read-out: TGI): 3180 nM
- GI50 (SK-OV-3 (Ovarian cancer)): 1730 nM
- IC (TGI) (SK-OV-3 (Ovarian cancer)): 3230 nM
- GI50 (CAKI-1 (Renal cancer)): 1490 nM
- IC (TGI) (CAKI-1 (Renal cancer); CAKI-1, 48 h, read-out: TGI): 2890 nM
- CC50 (CAKI-1 (Renal cancer); CAKI-1, read-out: LC50): 5600 nM
- GI50 (RXF 393 (Renal cancer); RXF 393): 1670 nM
- IC (TGI) (RXF 393 (Renal cancer); RXF 393, 48 h, read-out: TGI): 3270 nM
- GI50 (TK-10 (Renal cancer); Homo sapiens): 1610 nM
- IC (TGI) (TK-10 (Renal cancer); Homo sapiens): 3080 nM
- CC50 (TK-10 (Renal cancer); Homo sapiens, TK-10, read-out: LC50): 5890 nM
- Growth % of the Most Sensitive Cell Lines (TK-10 (Renal cancer); TK-10, 1 dose 10 µM): −94.69%
- GI50 (PC-3 (Prostate cancer)): 1160 nM
- IC (TGI) (PC-3 (Prostate cancer); PC-3, 48 h, read-out: TGI): 2620 nM

Compound: C[C@H]1[C@H](C)CC[C@]2(C(=O)Nc3ccc4ncccc4c3)CC[C@]3(C)C(=CC[C@@H]4[C@@]5(C)CCCNC(C)(C)[C@@H]5CC[C@]43C)[C@H]12 [Compound 14]
- EC50 [1]: 1800 ± 100 nM
- EC50 [2]: 1570 ± 800 nM
- EC50 [3]: 1790 ± 200 nM
- EC50 [4]: 1550 ± 100 nM
- EC50 (MCF-7 (breast carcinoma)): 1640 ± 100 nM
- GI50 (HL-60(TB) (Leukemia)): 1640 nM
- IC (TGI) (HL-60(TB) (Leukemia)): 3630 nM
- GI50 (MDA-MB-435 (Melanoma); Homo sapiens, MDA-MB-435): 1580 nM
- IC (TGI) (MDA-MB-435 (Melanoma); Homo sapiens, MDA-MB-435, 48 h, read-out: TGI): 3000 nM
- Growth % of the Most Sensitive Cell Lines (MDA-MB-435 (Melanoma); MDA-MB-435, 1 dose 10 µM): −91.82%
- GI50 (BT-549 (Breast cancer)): 1840 nM
- IC (TGI) (NSC lung cancer subpanel): 3360 nM
- GI50 (NSC lung cancer subpanel): 1780 nM
- CC50 (NSC lung cancer subpanel): 7530 nM
- GI50 (CCRF-CEM (Leukemia)): 1670 nM
- GI50 (RPMI-8226 (Leukemia)): 1600 nM
- GI50 (HCT-116 (Colon cancer)): 1600 nM
- activity at 10 µM (HCT-116 (Colon cancer)): -100%
- IC (TGI) (HCT-116 (Colon cancer)): 3110 nM
- CC50 (HCT-116 (Colon cancer); HCT-116, read-out: LC50): 6050 nM
- GI50 (HT29 (Colon cancer)): 1590 nM
- GI50 (SF-268 (CNS cancer)): 1730 nM
- GI50 (SF-539 (CNS cancer)): 1610 nM
- IC (TGI) (SF-539 (CNS cancer)): 3010 nM
- GI50 (SK-MEL-5 (Melanoma)): 1850 nM
- IC (TGI) (SK-MEL-5 (Melanoma)): 3320 nM
- CC50 (SK-MEL-5 (Melanoma)): 5940 nM
- GI50 (IGROV1 (Ovarian cancer)): 1700 nM
- IC (TGI) (IGROV1 (Ovarian cancer)): 3370 nM
- CC50 (IGROV1 (Ovarian cancer); IGROV-1, read-out: LC50): 6690 nM
- GI50 (OVCAR-5 (Ovarian cancer)): 1680 nM
- GI50 (SK-OV-3 (Ovarian cancer)): 1770 nM
- IC (TGI) (SK-OV-3 (Ovarian cancer)): 3270 nM
- GI50 (CAKI-1 (Renal cancer)): 1560 nM
- GI50 (TK-10 (Renal cancer); Homo sapiens): 1690 nM
- IC (TGI) (TK-10 (Renal cancer); Homo sapiens): 3200 nM
- GI50 (PC-3 (Prostate cancer)): 1760 nM
